Experimental data as given in patent publication US7598291B2, “Methods and compositions for enhancing collagen and proteoglycan synthesis in the skin” (priority 2004, dated 2009).

Tests used:
[1] = topical application, hairless mice; reduced in the process to dihydrolipoic acid; cited from earlier work
[2] = tested on: skin fibroblasts; experiment: Collagen synthesis in vitro (radioproline incorporation) in skin fibroblasts; type: cell-based, human; settings: lipoic acid 0 to 5 μg/ml (FIG. 5), proanthocyanidin vs control (FIG. 6)
Description: Rat skin fibroblasts and NIH 3T3 cells were used to measure collagen synthesis in vitro. Cells at a density of 100×10^3 in 24-well-plates were grown with 10% FBS/DMEM (Irvine Scientific, CA) supplemented with different doses of lipoic acid (0-16 μg/ml). Cells were incubated at 37° C. in a 5% CO2 environment for 24 hours. Medium was changed into labeling medium for another 24 hours (50 μCi/ml [^3H]proline, 25 μg/ml ascorbic acid, 25 μg/ml β-aminoproprionitrile (β-APN)). Collagen synthesis from cultured cells was assayed as previously described (B. Han et al. (2003), supra). Briefly, cells and medium were acidified with glacial acetic acid to a final concentration of 0.5 M and pepsin (Worthington) added to a final concentration of 0.5 mg/ml. Plates were shaken overnight at 4° C., collagen precipitated with 4.0 M NaCl and pellets washed with 20% cold ethanol 3 times. Pellets were dissolved with 0.5 M acetic acid and counted with a scintillation counter (Beckman)

[3] = tested on: rat hepatocytes; settings: older rats, 2-week dietary supplementation prior to hepatocyte isolation; cited from earlier work
[4] = tested on: lipid peroxidation; settings: old rats, diet supplemented with lipoic acid; cited from earlier work
[5] = tested on: skin fibroblasts; experiment: Cell proliferation assay (thymidine incorporation); type: cell-based, human; settings: vs control; FIG. 6
Description: NIH 3T3 fibroblasts were cultured in DMEM containing 10% fetal bovine serum in 24-well plates at a density of 80×10^3. After overnight attachment, medium was changed to a conditioning medium with different dosages of lipoic acid (20 ng-20 μg). DNA content was assayed after 48 hours in culture. Briefly, cells were trypsinized with 0.25% trypsin-EDTA and pelleted by centrifugation. To the cell pellet, 1.5 ml of cold 10 mM EDTA (pH 12.3) was added to solubilize cells. After neutralizing with 1.0 M KH2PO4 (140 μl) and mixing with 0.5 ml of 100 mM NaCl/10 mM Tris (pH 7.0), 10 μl of 66.7 μg/ml Hoechst 33258 (Sigma) was added to give fluorescent readings at emissions of 350 nm and 450 nm. Cell numbers were obtained by comparing the reading to a standard curve of cellular DNA (1×10^4 to 1×10^6 fibroblast). [^3H]Thymidine incorporation into DNA was performed as previously described (B. Han et al., “Proanthocyanidin: A Natural Crosslinking Reagent for Stabilizing Collagen Matrices,” J. Biomed. Mater. Res. 65A: 118-24 (2003)).

Compound	penetration across the skin barrier [1]	collagen synthesis in vitro (incorporation of radioproline) [2]	age-associated effects on ascorbic acid metabolism [3]	levels of malondialdehyde, an indicator of lipid peroxidation [4]	cellular proliferation (incorporation of thymidine) [5]
O=C(O)CCCC[C@@H]1CCSS1 (racemic) [lipoic acid, 1,2-dithiolane-3-pentanoic acid]	effectively penetrate across the skin barrier	–	–	–	–
O=C(O)CCCC[C@@H]1CCSS1 (stereo in doubt) [lipoic acid, 1,2-dithiolane-3-pentanoic acid]	–	increased	almost completely reversed	reduced	–
proanthocyanidin	–	increased	–	–	increase in cellular proliferation
